Test [1] deals with T1, 6 × His-ATD2B (amino-terminal domain of NR2B subunit), wild type (Rattus norvegicus, UniProt Q00960). The test can be described thus: CD ligand displacement: RO25,6981 displacing saturating ifenprodil on 6 × His-ATD2B. The test is classed as binding. More on the design: representation of the ATD2B construct (Arg27 to Arg393) with 6xHis-tag and linker; made in house. The procedure:
DLS measurements were made with DynaPro (Protein Solutions) and CD spectra were measured at 25°C on a Jasco J-715 Spectropolarimeter equipped with a 0.1 cm path-length cuvette (Jasco Corporation, Tokyo, Japan) as described previously. For the CD assays, the refolded protein was concentrated to 1 mg/ml using Vivaspin 2 ml concentrator (Vivascience). […] The CD spectra of the wild-type and mutant 6 × His-ATD2B proteins in the absence and presence of a ligand were recorded from 190 to 250 nm. The CD spectrum of Buffer 2 was subtracted from all the CD spectra obtained. […] All experiments were performed using at least two separate batches of induced and refolded 6 × His-ATD2B proteins (both wild-type and mutants), each batch in duplicates or triplicates. The dose-dependent binding curves of ligands to 6 × His-ATD2B were fitted by the following equation: […]

For the next test, the target named is NR1-1a/NR2B receptors (Rattus norvegicus, UniProt P35439+Q00960). The test can be described thus: cell-based.
For test [2], the target named is T1, 6 × His-ATD2B (amino-terminal domain of NR2B subunit), wild type. The test can be described thus: biochemical.
Method: DLS measurements were made with DynaPro (Protein Solutions) and CD spectra were measured at 25°C on a Jasco J-715 Spectropolarimeter equipped with a 0.1 cm path-length cuvette (Jasco Corporation, Tokyo, Japan) as described previously [41]. For the CD assays, the refolded protein was concentrated to 1 mg/ml using Vivaspin 2 ml concentrator (Vivascience). […] The final change of assay volume was < 3% for all ligands investigated. The CD spectra of the wild-type and mutant 6 × His-ATD2B proteins in the absence and presence of a ligand were recorded from 190 to 250 nm. The CD spectrum of Buffer 2 was subtracted from all the CD spectra obtained. […] All experiments were performed using at least two separate batches of induced and refolded 6 × His-ATD2B proteins (both wild-type and mutants), each batch in duplicates or triplicates. The dose-dependent binding curves of ligands to 6 × His-ATD2B were fitted by the following equation:
Y = Bmax [ligand]/(KD + [ligand])
where Y is the shift in ellipticity, [ligand] is the concentration of ligand investigated and KD is the dissociation equilibrium constant.
The experiment data were analyzed by nonlinear curve fitting (ORIGIN7, USA). All pooled data were expressed as mean ± SEM.
A further test deals with NR1/NR2B. More on the design: method as in PMID 15769547, PMID 15056006. The settings on record: NR1/NR2B transfected HEK293 and mouse L(tk-) cell line; cited from earlier work.
The target of the next test is rat brain cortex. The settings on record: [3H]ifenprodil binding; cited from earlier work.
In the next test the test system is NR1/NR2B(F176A). Set-up: method as in PMID 14534359. The settings on record: F176A mutation, HEK293 membranes; cited from earlier work.
A further test deals with NR1/NR2B(D101A). More on the design: method as in PMID 14534359. The settings on record: D101A mutation, HEK293 membranes; cited from earlier work.

Where two headings read alike, the source gives them in different places.

T1 sequence (Q00960 27-393): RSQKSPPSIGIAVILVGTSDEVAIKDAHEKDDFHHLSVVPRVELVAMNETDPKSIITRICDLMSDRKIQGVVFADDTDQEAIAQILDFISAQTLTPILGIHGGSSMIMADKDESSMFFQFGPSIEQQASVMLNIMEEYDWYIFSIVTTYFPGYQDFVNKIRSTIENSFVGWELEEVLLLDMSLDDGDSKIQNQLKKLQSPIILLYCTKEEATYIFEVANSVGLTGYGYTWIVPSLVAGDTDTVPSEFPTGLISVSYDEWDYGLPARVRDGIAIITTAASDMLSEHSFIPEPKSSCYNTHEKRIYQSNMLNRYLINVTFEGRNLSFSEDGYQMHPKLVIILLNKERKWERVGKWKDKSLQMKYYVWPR
NR1-1a/NR2B receptors, sequence (Q00960 27-1482, other chains not shown): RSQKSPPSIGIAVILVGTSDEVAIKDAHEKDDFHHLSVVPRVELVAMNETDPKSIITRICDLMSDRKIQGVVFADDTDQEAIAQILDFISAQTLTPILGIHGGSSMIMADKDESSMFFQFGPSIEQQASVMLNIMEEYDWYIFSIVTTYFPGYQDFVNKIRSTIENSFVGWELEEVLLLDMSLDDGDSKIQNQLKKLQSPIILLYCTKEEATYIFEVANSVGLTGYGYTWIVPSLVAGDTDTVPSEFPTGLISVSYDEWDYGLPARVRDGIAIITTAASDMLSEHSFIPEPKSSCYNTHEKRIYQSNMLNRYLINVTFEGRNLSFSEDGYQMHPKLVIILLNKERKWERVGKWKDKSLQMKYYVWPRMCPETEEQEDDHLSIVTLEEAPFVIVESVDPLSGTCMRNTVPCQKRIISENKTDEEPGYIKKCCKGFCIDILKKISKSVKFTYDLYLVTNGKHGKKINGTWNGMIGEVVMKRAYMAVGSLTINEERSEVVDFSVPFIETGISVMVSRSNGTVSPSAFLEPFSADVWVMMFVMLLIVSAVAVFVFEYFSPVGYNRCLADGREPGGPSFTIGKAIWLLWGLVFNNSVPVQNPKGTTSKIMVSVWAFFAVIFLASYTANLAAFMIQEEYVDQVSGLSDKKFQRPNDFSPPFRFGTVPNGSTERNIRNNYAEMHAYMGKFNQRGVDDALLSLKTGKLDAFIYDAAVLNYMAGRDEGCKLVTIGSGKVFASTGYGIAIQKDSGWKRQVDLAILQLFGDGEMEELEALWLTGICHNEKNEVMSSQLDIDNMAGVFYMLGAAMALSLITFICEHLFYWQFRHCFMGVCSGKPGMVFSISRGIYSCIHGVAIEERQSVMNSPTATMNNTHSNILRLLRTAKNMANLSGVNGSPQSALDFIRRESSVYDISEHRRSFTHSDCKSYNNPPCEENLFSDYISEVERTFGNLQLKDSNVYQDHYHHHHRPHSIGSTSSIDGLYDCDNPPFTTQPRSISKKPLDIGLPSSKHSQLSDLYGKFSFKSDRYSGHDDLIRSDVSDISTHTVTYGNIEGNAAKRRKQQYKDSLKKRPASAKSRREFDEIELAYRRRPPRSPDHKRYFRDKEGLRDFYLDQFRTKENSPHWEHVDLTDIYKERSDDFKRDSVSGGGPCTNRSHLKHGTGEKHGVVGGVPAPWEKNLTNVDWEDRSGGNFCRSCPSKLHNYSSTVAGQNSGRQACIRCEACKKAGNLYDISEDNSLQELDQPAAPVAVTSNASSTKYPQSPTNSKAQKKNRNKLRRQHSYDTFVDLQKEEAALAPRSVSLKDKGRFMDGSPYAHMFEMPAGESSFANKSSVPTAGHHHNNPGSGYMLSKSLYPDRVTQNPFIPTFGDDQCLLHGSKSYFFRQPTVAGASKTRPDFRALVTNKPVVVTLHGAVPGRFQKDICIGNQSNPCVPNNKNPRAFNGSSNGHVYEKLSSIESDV
Method for NR1-1a/NR2B receptors: cRNA for rat NR1-1a (hereafter NR1) and NR2B were synthesized in vitro and injected (5–10 ng) into stage V-VI Xenopus laevis oocytes, isolated as previously described [22, 26, 58]. Two-electrode voltage-clamp current recordings were made 2–7 days post injection. The recording solution contained (in mM) 90 NaCl, 3 KCl, 10 HEPES, 0.5 BaCl2, 0.01 EDTA, 0.05 glycine (23°C); pH was adjusted to 7.3 with NaOH. EDTA (10 μM) was added to chelate contaminant extracellular divalent ions, including trace amounts of Zn^2+. Solution exchange was computer controlled through an 8-modular valve positioner (Digital MVP Valve, Hamilton Company, Reno, NV). Voltage and current electrodes were filled with 0.3 and 3.0 M KCl, respectively, and current responses recorded at a holding potential of -40 mV. […] Data were pooled among oocytes and mean composite concentration-effect curve was fitted by the following equation:

Consider `C[C@@H](CN1CCC(Cc2ccccc2)CC1)[C@@H](O)c1ccc(O)cc1` [RO25,6981], for which the Ki (usually the dissociation constant of the complex between target and ligand, obtained from inhibition or displacement) in test [1] (Affinity (Ki) on displacing ifenprodil) is 4 ± 1 nM; in test [1] (Affinity (Ki) on displacing ifenprodil, Buffer-12 refolded protein, in presence of saturating 5 μM ifenprodil) it was 2 ± 1 nM; in test [1] (Affinity (Ki) on displacing ifenprodil, Buffer-13 refolded protein, in presence of saturating 5 μM ifenprodil), 3 ± 1 nM; in test [1] (range over Buffers -9, -12 and -13, n = 5 per buffer, read-out: Ki values), 2 to 4 nM. Half-maximal inhibition against NR1-1a/NR2B receptors (IC50) was put at 59 ± 1 nM. The dissociation constant Kd – broadly, the free concentration of one partner at which half of the binding sites on the other are occupied at equilibrium, for simple one-to-one binding – turned out to be 7 ± 3 nM in test [2] (Buffer-9 refolded protein, CD at 25°C, mean ± S.E., n = 5); 4 ± 1 nM in test [2] (Buffer-12 refolded protein, CD at 25°C, n = 5); 4 ± 2 nM in test [2] (Buffer-13 refolded protein, CD).
As for `CC(C(O)c1ccc(O)cc1)N1CCC(Cc2ccccc2)CC1` (stereo not drawn) [[^3H]ifenprodil], the Kd was 34 to 79 nM at NR1/NR2B and 36 nM at rat brain cortex.
Take [^3H]RO25,6981: the “[3H]RO25,6981 binding to membranes” value in the test on NR1/NR2B(F176A) and with NR1/NR2B(D101A) was “complete loss” throughout.
